ChEMBL document CHEMBL5291721, “A preclinical secondary pharmacology resource illuminates target-adverse drug reaction associations of marketed drugs” (Nat Commun, 2023)

How the values were obtained:
Cannabinoid receptor 1 = Cannabinoid receptor 1 (Homo sapiens, UniProt P21554)
Histamine H3 receptor = Histamine H3 receptor (Homo sapiens, UniProt Q9Y5N1)
[1] = target: T1, Muscarinic acetylcholine receptor M1 (Homo sapiens, UniProt P11229); type: functional, cell-based
T1 sequence (P11229 whole entry): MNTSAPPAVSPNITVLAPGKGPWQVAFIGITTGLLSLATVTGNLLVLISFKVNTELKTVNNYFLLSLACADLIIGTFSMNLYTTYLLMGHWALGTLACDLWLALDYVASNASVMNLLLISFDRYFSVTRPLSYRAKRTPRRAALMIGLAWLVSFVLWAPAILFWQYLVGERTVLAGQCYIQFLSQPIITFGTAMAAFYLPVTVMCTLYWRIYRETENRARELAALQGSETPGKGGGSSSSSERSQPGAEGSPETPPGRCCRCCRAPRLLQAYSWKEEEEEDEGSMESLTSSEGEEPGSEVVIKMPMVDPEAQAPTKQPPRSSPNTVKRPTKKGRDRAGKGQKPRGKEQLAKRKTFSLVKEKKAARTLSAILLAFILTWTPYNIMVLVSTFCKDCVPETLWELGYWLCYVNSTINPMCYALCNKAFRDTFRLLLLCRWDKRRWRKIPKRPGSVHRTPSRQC

[2] = target: Sodium-dependent dopamine transporter (Homo sapiens, UniProt Q01959)
Adenosine receptor A1 = target: T2, Adenosine receptor A1 (Homo sapiens, UniProt P30542)
T2 sequence (P30542 whole entry): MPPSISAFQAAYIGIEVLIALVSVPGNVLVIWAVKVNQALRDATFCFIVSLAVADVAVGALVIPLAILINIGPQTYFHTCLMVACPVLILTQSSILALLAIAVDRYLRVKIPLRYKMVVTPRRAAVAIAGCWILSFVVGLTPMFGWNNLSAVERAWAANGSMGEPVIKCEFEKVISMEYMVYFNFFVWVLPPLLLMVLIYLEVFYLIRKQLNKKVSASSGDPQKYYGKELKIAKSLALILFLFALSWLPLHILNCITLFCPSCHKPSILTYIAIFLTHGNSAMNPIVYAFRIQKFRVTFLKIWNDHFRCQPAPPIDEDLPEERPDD

[3] = target: T3, Amine oxidase [flavin-containing] A (Homo sapiens, UniProt P21397); type: functional
T3 sequence (P21397 whole entry): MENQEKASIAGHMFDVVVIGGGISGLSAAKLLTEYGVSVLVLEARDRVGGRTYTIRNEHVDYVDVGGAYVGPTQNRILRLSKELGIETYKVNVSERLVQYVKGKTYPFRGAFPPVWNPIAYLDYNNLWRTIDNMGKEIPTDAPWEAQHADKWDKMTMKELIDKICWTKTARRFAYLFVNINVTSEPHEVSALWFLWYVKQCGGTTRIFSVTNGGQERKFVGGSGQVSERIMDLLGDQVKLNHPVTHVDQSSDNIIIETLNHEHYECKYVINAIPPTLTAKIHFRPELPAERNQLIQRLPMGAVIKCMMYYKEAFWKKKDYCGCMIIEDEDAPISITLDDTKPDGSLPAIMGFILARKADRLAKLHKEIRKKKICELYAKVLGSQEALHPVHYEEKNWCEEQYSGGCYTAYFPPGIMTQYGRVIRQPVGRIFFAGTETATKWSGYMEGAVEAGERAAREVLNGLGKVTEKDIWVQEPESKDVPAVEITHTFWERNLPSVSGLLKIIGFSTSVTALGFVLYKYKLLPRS

[4] = target: Delta-type opioid receptor (Homo sapiens, UniProt P41143)
[5] = target: T4, 5-hydroxytryptamine receptor 2C (Homo sapiens, UniProt P28335)
T4 sequence (P28335 whole entry): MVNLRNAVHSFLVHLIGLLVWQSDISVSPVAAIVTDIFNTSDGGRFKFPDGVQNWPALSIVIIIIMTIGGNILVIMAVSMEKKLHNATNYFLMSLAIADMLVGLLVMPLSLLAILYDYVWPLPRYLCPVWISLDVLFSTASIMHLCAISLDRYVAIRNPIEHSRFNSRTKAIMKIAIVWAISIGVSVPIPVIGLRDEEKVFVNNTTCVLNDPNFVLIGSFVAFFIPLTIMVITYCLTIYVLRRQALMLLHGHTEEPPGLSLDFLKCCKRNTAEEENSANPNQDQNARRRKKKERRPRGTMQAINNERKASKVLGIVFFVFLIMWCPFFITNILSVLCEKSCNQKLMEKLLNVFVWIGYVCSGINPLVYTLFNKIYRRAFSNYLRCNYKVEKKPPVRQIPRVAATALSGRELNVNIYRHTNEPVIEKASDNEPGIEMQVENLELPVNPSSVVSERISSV

Estrogen receptor = target: T5, Estrogen receptor (Homo sapiens, UniProt P03372)
T5 sequence (P03372 whole entry): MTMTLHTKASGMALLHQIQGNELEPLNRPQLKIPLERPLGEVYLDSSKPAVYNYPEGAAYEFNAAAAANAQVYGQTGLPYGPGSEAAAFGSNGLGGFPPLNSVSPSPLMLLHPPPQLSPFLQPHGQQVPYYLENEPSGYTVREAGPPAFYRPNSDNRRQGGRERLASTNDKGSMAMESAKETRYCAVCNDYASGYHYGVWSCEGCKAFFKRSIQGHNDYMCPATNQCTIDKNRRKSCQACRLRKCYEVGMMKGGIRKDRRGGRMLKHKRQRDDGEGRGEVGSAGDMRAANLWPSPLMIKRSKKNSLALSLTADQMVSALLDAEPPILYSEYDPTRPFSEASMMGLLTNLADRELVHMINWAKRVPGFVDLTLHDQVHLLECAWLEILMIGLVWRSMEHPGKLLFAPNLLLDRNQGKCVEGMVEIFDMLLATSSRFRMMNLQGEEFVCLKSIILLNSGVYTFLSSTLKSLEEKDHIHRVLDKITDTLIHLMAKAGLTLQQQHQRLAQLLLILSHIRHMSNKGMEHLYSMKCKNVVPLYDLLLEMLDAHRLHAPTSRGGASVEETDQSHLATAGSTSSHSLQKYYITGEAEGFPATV
Also: assay procedure not described here.

Sequence of Sodium-dependent dopamine transporter (Q01959 whole entry): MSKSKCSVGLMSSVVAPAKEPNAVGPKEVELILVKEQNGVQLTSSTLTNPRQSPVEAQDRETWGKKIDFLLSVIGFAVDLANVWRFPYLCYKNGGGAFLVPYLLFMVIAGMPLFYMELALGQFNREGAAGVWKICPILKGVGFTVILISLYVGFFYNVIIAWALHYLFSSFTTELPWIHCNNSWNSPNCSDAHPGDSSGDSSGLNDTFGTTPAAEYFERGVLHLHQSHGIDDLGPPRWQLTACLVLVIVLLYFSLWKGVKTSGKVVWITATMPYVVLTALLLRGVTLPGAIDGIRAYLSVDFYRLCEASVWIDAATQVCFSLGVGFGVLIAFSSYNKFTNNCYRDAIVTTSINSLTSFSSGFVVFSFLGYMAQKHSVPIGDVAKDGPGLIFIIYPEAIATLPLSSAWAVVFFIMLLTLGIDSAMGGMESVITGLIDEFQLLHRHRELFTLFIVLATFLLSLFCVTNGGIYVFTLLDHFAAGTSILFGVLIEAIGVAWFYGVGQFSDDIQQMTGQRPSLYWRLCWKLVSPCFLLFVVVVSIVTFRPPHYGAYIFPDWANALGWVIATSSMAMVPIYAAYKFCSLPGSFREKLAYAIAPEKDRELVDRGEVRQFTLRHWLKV
Sequence of Delta-type opioid receptor (P41143 whole entry): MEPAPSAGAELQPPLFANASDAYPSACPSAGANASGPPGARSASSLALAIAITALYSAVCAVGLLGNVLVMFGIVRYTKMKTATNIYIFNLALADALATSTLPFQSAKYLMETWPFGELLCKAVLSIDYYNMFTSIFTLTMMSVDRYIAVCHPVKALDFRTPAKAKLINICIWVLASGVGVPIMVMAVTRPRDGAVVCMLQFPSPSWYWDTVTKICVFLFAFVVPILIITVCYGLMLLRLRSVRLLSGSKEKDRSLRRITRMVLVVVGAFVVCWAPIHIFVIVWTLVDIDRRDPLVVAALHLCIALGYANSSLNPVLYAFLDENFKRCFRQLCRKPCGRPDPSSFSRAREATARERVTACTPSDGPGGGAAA
Sequence of Histamine H3 receptor (Q9Y5N1 whole entry): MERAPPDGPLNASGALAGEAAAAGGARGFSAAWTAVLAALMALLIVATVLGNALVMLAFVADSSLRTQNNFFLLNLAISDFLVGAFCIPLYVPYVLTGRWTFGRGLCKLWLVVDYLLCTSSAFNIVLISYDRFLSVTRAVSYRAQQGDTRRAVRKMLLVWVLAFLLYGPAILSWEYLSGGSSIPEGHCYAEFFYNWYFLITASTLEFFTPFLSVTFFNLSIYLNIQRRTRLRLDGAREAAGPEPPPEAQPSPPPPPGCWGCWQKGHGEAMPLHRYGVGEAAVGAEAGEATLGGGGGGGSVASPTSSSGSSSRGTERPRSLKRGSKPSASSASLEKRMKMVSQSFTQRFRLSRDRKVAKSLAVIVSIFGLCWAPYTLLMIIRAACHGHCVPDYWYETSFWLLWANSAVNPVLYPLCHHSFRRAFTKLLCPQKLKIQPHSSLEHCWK
Sequence of Cannabinoid receptor 1 (P21554 whole entry): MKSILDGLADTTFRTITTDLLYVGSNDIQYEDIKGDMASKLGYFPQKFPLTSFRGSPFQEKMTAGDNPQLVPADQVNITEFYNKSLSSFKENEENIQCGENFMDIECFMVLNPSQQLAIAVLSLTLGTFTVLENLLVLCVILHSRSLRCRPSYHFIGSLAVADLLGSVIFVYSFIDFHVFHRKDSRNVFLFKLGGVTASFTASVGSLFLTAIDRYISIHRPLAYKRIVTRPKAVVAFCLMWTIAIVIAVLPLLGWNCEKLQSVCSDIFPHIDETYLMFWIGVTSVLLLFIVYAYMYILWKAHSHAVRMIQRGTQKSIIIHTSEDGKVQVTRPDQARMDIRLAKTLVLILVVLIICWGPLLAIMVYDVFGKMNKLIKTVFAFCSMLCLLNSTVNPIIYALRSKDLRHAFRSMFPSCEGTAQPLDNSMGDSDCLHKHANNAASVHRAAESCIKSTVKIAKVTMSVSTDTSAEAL

| Compound | AC50 (Cannabinoid receptor 1) [µM] | AC50 (Histamine H3 receptor) [µM] | AC50 [1] [µM] | AC50 [2] [µM] | AC50 (Adenosine receptor A1) [µM] | AC50 [3] [µM] | AC50 [4] [µM] | AC50 [5] [µM] | AC50 (Estrogen receptor) [µM] |
| --- | --- | --- | --- | --- | --- | --- | --- | --- | --- |
| CCCN(CCC)C(=O)Cc1c(-c2ccc(Cl)cc2)nc2ccc(Cl)cn12 [ALPIDEM] | > 30 | > 30 | > 10 | > 30 | > 30 | > 30 | > 30 | > 30 | > 30 |
| COc1cc2nccc(Oc3ccc(NC(=O)C4(C(=O)Nc5ccc(F)cc5)CC4)cc3)c2cc1OC [CABOZANTINIB] | – | > 30 | 2.72 | > 30 | > 30 | > 30 | > 30 | > 30 | > 30 |
| CC(=O)O[C@]1(C(C)=O)CC[C@H]2[C@@H]3C=C(C)C4=CC(=O)CC[C@@H]4[C@H]3CC[C@@]21C [NOMEGESTROL ACETATE] | – | – | > 10 | > 30 | – | > 30 | > 30 | > 30 | > 30 |
| N#Cc1ccc2c(c1)N(CCCN1CCC(O)CC1)c1ccccc1S2 [PERICIAZINE] | – | – | 5.58 | – | – | – | – | – | > 30 |
| FC(F)(F)c1ccc(CNc2ccc(Cc3c[nH]c4ncc(Cl)cc34)cn2)cn1 [PEXIDARTINIB] | – | – | 0.389 | – | – | – | – | – | > 30 |
| Nc1ccc(C(=O)Oc2ccccc2)c(O)c1 [PHENYL AMINOSALICYLATE] | – | – | 17.1 | – | – | – | – | – | > 30 |
| CN1CCC(=C2c3ccccc3Sc3ccccc32)CC1 [PIMETHIXENE] | – | – | 0.0216 | – | – | – | – | – | > 30 |
| [H]/N=C(\N/C(=N/[H])Nc1ccc(Cl)cc1)NC(C)C [PROGUANIL] | – | – | > 30 | – | – | – | – | – | > 30 |
| CC(CN1CC(=O)NC(=O)C1)N1CC(=O)NC(=O)C1 (centres undefined) [RAZOXANE] | – | – | > 30 | – | – | – | – | – | > 30 |
| CC(C)OC(=O)CCC/C=C\C[C@@H]1[C@@H](/C=C/C(F)(F)COc2ccccc2)[C@H](O)C[C@@H]1O [TAFLUPROST] | – | – | > 30 | – | – | – | – | – | > 30 |
| CC[C@H]1OC(=O)[C@H](C)C(=O)[C@H](C)[C@@H](O[C@@H]2O[C@H](C)C[C@H](N(C)C)[C@H]2O)[C@](C)(OC)C[C@@H](C)C(=O)[C@H](C)[C@H]2N(CCCCn3cnc(-c4cccnc4)c3)C(=O)O[C@]12C [TELITHROMYCIN] | – | – | > 30 | – | – | – | – | – | > 30 |
